Experimental data taken from patent US9210928B2, “Plant development control composition” (Syngenta Crop Protection, LLC, priority 2008, dated 2015).
Entries after “also recorded” stand apart in the source; their conditions may differ.

What was measured:
AtCCD7 = molecular target: T1, AtCCD7 (Arabidopsis thaliana, UniProt Q7XJM2); assay: In vivo enzyme assay in β-carotene-producing E. coli expressing AtCCD7; format: cell-based; conditions: 100 μM inhibitor, 16 hours; FIG. 4
T1 construct: expressed in transfected cells; host or cells: E. coli BL21(DE3) harbouring pAC-BETA
T1 sequence (Q7XJM2 32-618): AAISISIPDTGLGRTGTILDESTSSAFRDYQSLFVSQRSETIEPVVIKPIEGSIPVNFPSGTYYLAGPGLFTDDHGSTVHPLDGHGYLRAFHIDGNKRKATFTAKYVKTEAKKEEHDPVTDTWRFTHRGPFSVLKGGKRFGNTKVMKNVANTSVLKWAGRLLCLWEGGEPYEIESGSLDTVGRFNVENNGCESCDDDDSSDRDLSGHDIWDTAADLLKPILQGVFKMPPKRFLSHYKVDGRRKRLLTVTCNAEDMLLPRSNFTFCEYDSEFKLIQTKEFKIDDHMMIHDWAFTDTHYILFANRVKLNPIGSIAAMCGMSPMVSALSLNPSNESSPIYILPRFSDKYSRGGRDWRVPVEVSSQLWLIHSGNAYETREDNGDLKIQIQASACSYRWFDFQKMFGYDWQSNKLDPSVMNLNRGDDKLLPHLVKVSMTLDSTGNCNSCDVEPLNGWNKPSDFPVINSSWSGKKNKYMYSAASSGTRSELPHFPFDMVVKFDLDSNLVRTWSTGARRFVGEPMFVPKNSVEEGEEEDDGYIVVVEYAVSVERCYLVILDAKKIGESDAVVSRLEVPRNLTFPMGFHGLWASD
Description: (§1) In vivo enzyme assays in E. coli—The genes of interest (supplemental Table S1) were cloned into the vector pET30c (Novagen) fused directly to the initial ATG codon with no tag, or into pGEX-4T such that the gene was fused to an N-terminal GST tag. All genes were full length except AtCCD7, which had the chloroplast signal sequence removed (supplemental methods). […] Therefore, this construct was used in subsequent assays. The plasmids were transferred to the E. coli expression strain BL21(DE3), harbouring pAC-BETA (38), and therefore producing β-carotene.
For each inhibitor assay, 2.5 ml LB media with the appropriate antibiotics (25 μg ml^−1 chloramphenicol and 50 μg ml^−1 kanamycin or 100 μg ml^−1 ampicillin) and 2.5 μM IPTG, was prepared. Inhibitors (0.1 M in 100% ethanol) were added to the media to a final concentration of 100 μM. The media was then inoculated with 0.25 ml of overnight culture (grown at 37° C. with the appropriate antibiotics) and incubated with shaking (200 rpm) at 28° C. for 16 hours. One ml of culture was harvested by microcentrifugation and resuspended thoroughly in 1 ml ethanol containing 0.2% Triton X-100. […] The supernatant was removed and the O.D.453-O.D.550 was measured. The amount of β-carotene was calculated using a standard curve generated from a dilution series of β-carotene (Sigma) in ethanol with 0.2% Triton X-100; the absolute levels of β-carotene are shown in FIG. 8. The relative inhibition was calculated by the equation: (Ci−Cc)/(C1−Cc)×100, where Ci is the carotenoid level with inhibitor and CCD present, Cc is the level with CCD but without the inhibitor and C1 is the level in a strain where lacZ is expressed instead of the CCD, and no inhibitor is present. […]
In vivo activity of inhibitors applied to E. coli strains expressing CCDs—Coloured E. coli strains that produce various carotenoids can be constructed by expression of enzymes for carotenoid synthesis (26). […] The difference in the carotenoid levels gave a measure of CCD activity, and inhibition of this activity was measured by addition of inhibitors to the growing medium. […]

LeCCD1a = assay: In vivo enzyme assay in β-carotene-producing E. coli expressing LeCCD1a; format: cell-based, Solanum lycopersicum; conditions: 100 μM inhibitor, 16 hours; FIG. 4
Description: as §1
For each inhibitor assay, 2.5 ml LB media with the appropriate antibiotics (25 μg ml^−1 chloramphenicol and 50 μg ml^−1 kanamycin or 100 μg ml^−1 ampicillin) and 2.5 μM IPTG, was prepared. Inhibitors (0.1 M in 100% ethanol) were added to the media to a final concentration of 100 μM. The media was then inoculated with 0.25 ml of overnight culture (grown at 37° C. with the appropriate antibiotics) and incubated with shaking (200 rpm) at 28° C. for 16 hours. One ml of culture was harvested by microcentrifugation and resuspended thoroughly in 1 ml ethanol containing 0.2% Triton X-100. After vortexing, the extract was incubated at room temperature in the dark for 3 hours, again vortexed and then spun in a microcentrifuge for 5 min at 13000 rpm. The supernatant was removed and the O.D.453-O.D.550 was measured. The amount of β-carotene was calculated using a standard curve generated from a dilution series of β-carotene (Sigma) in ethanol with 0.2% Triton X-100; the absolute levels of β-carotene are shown in FIG. 8. The relative inhibition was calculated by the equation: (Ci−Cc)/(C1−Cc)×100, where Ci is the carotenoid level with inhibitor and CCD present, Cc is the level with CCD but without the inhibitor and C1 is the level in a strain where lacZ is expressed instead of the CCD, and no inhibitor is present. Thus the increase in β-carotene due to inhibition of the CCD […] was expressed relative to the maximum possible β-carotene content when CCD is absent (C1−Cc).
In vivo activity of inhibitors applied to E. coli strains expressing CCDs—Coloured E. coli strains that produce various carotenoids can be constructed by expression of enzymes for carotenoid synthesis (26). Upon co-expression of the appropriate CCD, the bacteria lose their colour due to cleavage of the carotenoids to colourless products (4,6,27). This technique was employed here to further explore the specificity of inhibitors, and to test their activity in vivo. The level of carotenoid in each CCD-expressing strain was compared to the level of the carotenoid in a control strain producing β-carotene but lacking any CCD gene. The difference in the carotenoid levels gave a measure of CCD activity, and inhibition of this activity was measured by addition of inhibitors to the growing medium.
The inhibitors were tested against four β-carotene-producing E. coli strains (supplemental Table S1). Three of the strains expressed highly divergent CCDs that cleave at the 9,10 position: AtCCD7 from Arabidopsis (21) and MmBCO2 from mouse (6) which both cleave at a single site (9,10 or 9′,10′ but not both), and the tomato enzyme LeCCD1a (44) which cleaves at both sites in the same substrate molecule (9,10/9′,10′ activity). The fourth strain expressed another mouse CCD, MmBCO1 (47), which cleaves centrally at 15,15′. […]

Row | Structure (SMILES) | relative inhibition of AtCCD7 in E. coli (in words) (AtCCD7) | relative inhibition of LeCCD1a in E. coli (in words) (LeCCD1a)
1 | COc1ccc(C(=O)N(O)Cc2ccccc2)cc1 [Compound F1, N-benzyl-4-methoxybenzoyl hydroxamic acid] | poor inhibition; also recorded: relatively small activity; also recorded: relatively ineffective against AtCCD7; also recorded: poor inhibitors against AtCCD7 | good activity against LeCCD1a; also recorded: high inhibitory activity
2 | COc1ccc(C(=O)N(O)Cc2ccc(F)cc2)cc1 [Compound F2, N-(4-fluorobenzyl)-4-methoxybenzoyl hydroxamic acid] | poor inhibition; also recorded: relatively small activity; also recorded: relatively ineffective against AtCCD7; also recorded: poor inhibitors against AtCCD7 | good activity against LeCCD1a; also recorded: high inhibitory activity
3 | COc1ccc(C(=O)N(O)Cc2ccccc2)cc1OC [Compound F3, N-benzyl-3,4-dimethoxybenzoyl hydroxamic acid] | inactive | virtually none
